pKi: −log10 of the molar value.
Each compound was assayed against HPK full length, T165E S171E (Homo sapiens (Human), UniProt Q92918, S171E/T165E) (assay: HPK1-FL HTRF enzymatic assay ("HTRF")). Details: ATP 1 mM, read-out: HPK1 Ki.
Assay type: biochemical
Procedure: Assay Principle: HPK-FL enzyme phosphorylates Biotin-SLP-76 substrate in the presence of ATP at […] and varying concentrations of test compound. Product is detected by FRET using Eu-anti-pSLP76 Ab and SA-XL665. Also see www.cisbio.com/HTRF for additional HTRF technology information.
Instrumentation: Echo555 compound dispenser; Agilent Bravo; Perkin Elmer Envision.
To a 384 well Proxiplate with 80 nL compound or DMSO spotted on was added 4 μl/well kinase mix. The mixture was preincubated for 30 minutes and then 4 μl/well substrate mix was added. The solution was incubated for 60 min and then 4 μl/well detection mix was added. The solution was incubated for another 60 min.
Exemplary compounds were tested in the HTRF binding assays.

Chain of HPK full length, T165E S171E (Q92918 whole entry T165E/S171E, looked up): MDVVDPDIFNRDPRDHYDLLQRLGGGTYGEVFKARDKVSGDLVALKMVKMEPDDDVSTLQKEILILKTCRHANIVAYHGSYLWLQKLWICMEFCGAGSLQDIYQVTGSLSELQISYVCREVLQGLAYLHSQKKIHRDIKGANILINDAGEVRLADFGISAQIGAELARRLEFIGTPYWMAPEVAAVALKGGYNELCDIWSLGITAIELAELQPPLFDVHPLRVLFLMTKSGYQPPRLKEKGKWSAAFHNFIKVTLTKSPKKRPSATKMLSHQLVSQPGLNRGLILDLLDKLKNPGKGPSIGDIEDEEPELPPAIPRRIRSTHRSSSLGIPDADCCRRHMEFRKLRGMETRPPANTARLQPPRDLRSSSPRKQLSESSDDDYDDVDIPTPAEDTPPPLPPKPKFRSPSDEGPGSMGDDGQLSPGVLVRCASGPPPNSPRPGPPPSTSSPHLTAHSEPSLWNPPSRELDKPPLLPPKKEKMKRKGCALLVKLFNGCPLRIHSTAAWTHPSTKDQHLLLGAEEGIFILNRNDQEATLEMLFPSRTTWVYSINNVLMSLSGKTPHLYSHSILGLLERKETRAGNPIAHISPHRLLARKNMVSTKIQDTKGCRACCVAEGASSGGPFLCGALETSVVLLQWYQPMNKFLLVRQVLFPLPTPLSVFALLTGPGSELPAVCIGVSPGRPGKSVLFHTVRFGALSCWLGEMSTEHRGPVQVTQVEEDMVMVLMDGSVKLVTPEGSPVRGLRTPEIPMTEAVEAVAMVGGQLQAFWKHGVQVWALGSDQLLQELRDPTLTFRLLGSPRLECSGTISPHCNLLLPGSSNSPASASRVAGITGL

Compound	pKi
Cc1c(-c2cc3cc(NC(=O)OC4CCOC4)ncc3c(N)c2F)cnc2c1NCCO2 (racemic) [Compound 403, (±)-Tetrahydrofuran-3-yl (8-amino-7-fluoro-6-(8-methyl-2,3-dihydro-1H-pyrido[2,3-b][1,4]oxazin-7-yl)isoquinolin-3-yl)carbamate]	10.64
Cc1c(-c2cc3cc(NC(=O)O[C@@H]4COC[C@H]4C)ncc3c(N)c2F)cnc2c1NCCO2 (racemic) [Compound 441ab, (±)-trans-4-Methyltetrahydrofuran-3-yl (8-amino-7-fluoro-6-(8-methyl-2,3-dihydro-1H-pyrido[2,3-b][1,4]oxazin-7-yl)isoquinolin-3-yl)carbamate]	10.43
Cc1c(-c2cc3cc(NC(=O)O[C@@H]4CCO[C@H]4C)ncc3c(N)c2F)cnc2c1NCCO2 (racemic) [Compound 510a, (2S,3R)-2-methyltetrahydrofuran-3-yl (8-amino-7-fluoro-6-(8-methyl-2,3-dihydro-1H-pyrido[2,3-b][1,4]oxazin-7-yl)isoquinolin-3-yl)carbamate]	9.40
Cc1c(-c2cc3cc(NC(=O)O[C@@H]4CCOC4)ncc3c(N)c2F)cnc2c1NCC(CO)C2 (mixture of isomers) [Compound 581a, (R)-Tetrahydrofuran-3-yl (8-amino-7-fluoro-6-(7-(hydroxymethyl)-4-methyl-5,6,7,8-tetrahydro-1,5-naphthyridin-3-yl)isoquinolin-3-yl)carbamate]	9.37
Cc1c(-c2cc3cc(NC(=O)O[C@@H]4CCN(C5COC5)C[C@H]4F)ncc3c(N)c2F)cnc2c1NCCO2 (relative stereo) [Compound 445ab, (+1-)-trans-3-Fluoro-1-(oxetan-3-yl)piperidin-4-yl (8-amino-7-fluoro-6-(8-methyl-2,3-dihydro-1H-pyrido[2,3-b][1,4]oxazin-7-yl)isoquinolin-3-yl)carbamate]	> 10.89
Cc1c(-c2cc3cc(NC(=O)O[C@H]4CO[C@]5(CCN(C)C5)C4)ncc3c(N)c2F)cnc2c1NCCO2 (relative stereo) [Compound 467b, (3R,5R)-7-Methyl-1-oxa-7-azaspiro[4.4]nonan-3-yl(8-amino-7-fluoro-6-(8-methyl-2,3-dihydro-1H-pyrido[2,3-b][1,4]oxazin-7-yl)isoquinolin-3-yl)carbamate]	10.19
Cc1c(-c2cc3cc(NC(=O)N[C@@H]4CC[C@H]4C#N)ncc3c(N)c2F)cnc2c1NCCO2 (relative stereo) [Compound 712ab, 1-(8-Amino-7-fluoro-6-(8-methyl-2,3-dihydro-1H-pyrido[2,3-b][1,4]oxazin-7-yl)isoquinolin-3-yl)-3-(trans-2-cyanocyclobutyl)urea]	> 10.89
Cc1c(-c2cc3cc(NC(=O)N[C@H]4CCC[C@H]4O)ncc3c(N)c2F)cnc2c1NCCO2 (relative stereo) [Compound 728a, 1-[8-Amino-7-fluoro-6-(8-methyl-2,3-dihydro-1H-pyrido[2,3-b][1,4]oxazin-7-yl)-3-isoquinolyl]-3-[(1S,2R)-2-hydroxycyclopentyl]urea]	> 10.89
Cc1c(-c2cc3cc(NC(=O)O[C@@H]4CCNC4)ncc3c(N)c2F)cnc2c1NCCO2 (single isomer, unassigned) [Compound 405a]	9.86
Cc1c(-c2cc3cc(NC(=O)O[C@H]4CCNC4)ncc3c(N)c2F)cnc2c1NCCO2 (single isomer, unassigned) [Compound 405b]	9.80
Cc1c(-c2cc3cc(NC(=O)O[C@H]4CCCNC4)ncc3c(N)c2F)cnc2c1NCCO2 (single isomer, unassigned) [Compound 408a]	10.05
Cc1c(-c2cc3cc(NC(=O)O[C@@H]4CCCNC4)ncc3c(N)c2F)cnc2c1NCCO2 (single isomer, unassigned) [Compound 408b]	10.16
Cc1c(-c2cc3cc(NC(=O)O[C@H]4CC(=O)N(C)C4)ncc3c(N)c2F)cnc2c1NCCO2 (single isomer, unassigned) [Compound 410a]	9.78
Cc1c(-c2cc3cc(NC(=O)O[C@@H]4CC(=O)N(C)C4)ncc3c(N)c2F)cnc2c1NCCO2 (single isomer, unassigned) [Compound 410b]	10.54
Cc1c(-c2cc3cc(NC(=O)OC4CCOCC4)ncc3c(N)c2F)cnc2c1[C@@H](O)CCO2 (single isomer, unassigned) [Compound 412a]	7.39
Cc1c(-c2cc3cc(NC(=O)OC4CCOCC4)ncc3c(N)c2F)cnc2c1[C@H](O)CCO2 (single isomer, unassigned) [Compound 412b]	9.54
CC(=O)N[C@H]1CCCC[C@@H]1OC(=O)Nc1cc2cc(-c3cnc4c(c3C)NCCO4)c(F)c(N)c2cn1 (single isomer, unassigned) [Compound 414a]	9.23
CC(=O)N[C@@H]1CCCC[C@H]1OC(=O)Nc1cc2cc(-c3cnc4c(c3C)NCCO4)c(F)c(N)c2cn1 (single isomer, unassigned) [Compound 414b]	7.68
CN[C@H]1CCCC[C@@H]1OC(=O)Nc1cc2cc(-c3cnc4c(c3C)NCCO4)c(F)c(N)c2cn1 (single isomer, unassigned) [Compound 415a]	8.52
CN[C@@H]1CCCC[C@H]1OC(=O)Nc1cc2cc(-c3cnc4c(c3C)NCCO4)c(F)c(N)c2cn1 (single isomer, unassigned) [Compound 415b]	7.80
CC(=O)N1CC[C@@H](OC(=O)Nc2cc3cc(-c4cnc5c(c4C)NCCO5)c(F)c(N)c3cn2)C1 (single isomer, unassigned) [Compound 418a]	> 10.89
Cc1c(-c2cc3cc(NC(=O)OC4CCN(C)CC4F)ncc3c(N)c2F)cnc2c1NCCO2 (single isomer, unassigned) [Compound 433]	> 10.89

Compound	pKi
CC(=O)N1CC[C@H](OC(=O)Nc2cc3cc(-c4cnc5c(c4C)NCCO5)c(F)c(N)c3cn2)[C@H](F)C1 (single isomer, unassigned) [Compound 437a]	> 10.89
CC(=O)N1CC[C@@H](OC(=O)Nc2cc3cc(-c4cnc5c(c4C)NCCO5)c(F)c(N)c3cn2)[C@@H](F)C1 (single isomer, unassigned) [Compound 437b]	10.27
Cc1c(-c2cc3cc(NC(=O)OC4C5COCC4CN(C)C5)ncc3c(N)c2F)cnc2c1NCCO2 (single isomer, unassigned) [Compound 439a]	> 10.89
Cc1c(-c2cc3cc(NC(=O)OC4C5COCC4CN(C)C5)ncc3c(N)c2F)cnc2c1NCCO2 (single isomer, unassigned) [Compound 439b]	9.32
Cc1c(-c2cc3cc(NC(=O)O[C@H]4COCCN(C)C4)ncc3c(N)c2F)cnc2c1NCCO2 (single isomer, unassigned) [Compound 440a]	10.08
Cc1c(-c2cc3cc(NC(=O)O[C@@H]4COCCN(C)C4)ncc3c(N)c2F)cnc2c1NCCO2 (single isomer, unassigned) [Compound 440b]	9.56
Cc1c(-c2cc3cc(NC(=O)O[C@@H]4COC[C@H]4C)ncc3c(N)c2F)cnc2c1NCCO2 (single isomer, unassigned) [Compound 441a]	> 10.89
Cc1c(-c2cc3cc(NC(=O)O[C@H]4COC[C@H]4C)ncc3c(N)c2F)cnc2c1NCCO2 (single isomer, unassigned) [Compound 441c]	9.80
Cc1c(-c2cc3cc(NC(=O)O[C@@H]4COC[C@@H]4C)ncc3c(N)c2F)cnc2c1NCCO2 (single isomer, unassigned) [Compound 441d]	9.49
Cc1c(-c2cc3cc(NC(=O)O[C@H]4CN(C)C[C@H]4C)ncc3c(N)c2F)cnc2c1NCCO2 (single isomer, unassigned) [Compound 442b]	9.70
Cc1c(-c2cc3cc(NC(=O)O[C@@H]4CN(C)C[C@H]4C)ncc3c(N)c2F)cnc2c1NCCO2 (single isomer, unassigned) [Compound 442c]	9.81
Cc1c(-c2cc3cc(NC(=O)O[C@H]4CN(C)C[C@@H]4C)ncc3c(N)c2F)cnc2c1NCCO2 (single isomer, unassigned) [Compound 442d]	10.34
CCc1c(-c2cc3cc(NC(=O)O[C@@H]4CC(=O)N(C)C4)ncc3c(N)c2F)cnc2c1NCCO2 (single isomer, unassigned) [Compound 444a]	> 10.89
CCc1c(-c2cc3cc(NC(=O)O[C@H]4CC(=O)N(C)C4)ncc3c(N)c2F)cnc2c1NCCO2 (single isomer, unassigned) [Compound 444b]	> 10.89
Cc1c(-c2cc3cc(NC(=O)OC[C@@]4(F)CCN(C)C4)ncc3c(N)c2F)cnc2c1NCCO2 (single isomer, unassigned) [Compound 451a]	9.85
Cc1c(-c2cc3cc(NC(=O)OC[C@]4(F)CCN(C)C4)ncc3c(N)c2F)cnc2c1NCCO2 (single isomer, unassigned) [Compound 451b]	> 10.89
Cc1c(-c2cc3cc(NC(=O)O[C@@H]4CN(C)C[C@@H]4F)ncc3c(N)c2F)cnc2c1NCCO2 (single isomer, unassigned) [Compound 452d]	> 10.89
Cc1c(-c2cc3cc(NC(=O)OC4CCOCC4)ncc3c(N)c2F)cnc2c1NCC[C@H]2C (single isomer, unassigned) [Compound 461a]	9.05
Cc1c(-c2cc3cc(NC(=O)OC4CCOCC4)ncc3c(N)c2F)cnc2c1NCC[C@@H]2C (single isomer, unassigned) [Compound 461b]	9.00
Cc1c(-c2cc3cc(NC(=O)O[C@@H]4CO[C@@]5(CCN(C)C5)C4)ncc3c(N)c2F)cnc2c1NCCO2 (single isomer, unassigned) [Compound 467a]	10.51
Cc1c(-c2cc3cc(NC(=O)O[C@@H]4CO[C@]5(CCN(C)C5)C4)ncc3c(N)c2F)cnc2c1NCCO2 (single isomer, unassigned) [Compound 467c]	10.57
Cc1c(-c2cc3cc(NC(=O)O[C@H]4CO[C@@]5(CCN(C)C5)C4)ncc3c(N)c2F)cnc2c1NCCO2 (single isomer, unassigned) [Compound 467d]	> 10.89
